Key:
[1] = system: STAT3 mRNA; test: STAT3 mRNA expression in IL-6 stimulated PANC-1 cells, branched DNA assay; format: cell-based, human; conditions: 5 point DR data
[2] = system: GAPDH; test: GAPDH inhibition in PANC-1 cells, same assay; format: cell-based, human; conditions: 2 point DR data
Protocol: (§1) The PANC-1 cells were grown in cell culture media and seeded onto a 96 well plate at a density of 20,000 cells/well. ASOs were tested in two separate cohorts: 2 doses or 5 doses were given to the PANC-1 cells (See TABLE 3) at final concentrations of 20 nM and 2 nM, respectively. The assay used Lipofectamine2000 transfection and a 48 hr treatment cycle, with incubation at 37° C. and 5% C02. Analysis of the mRNA expression was then carried out using a branched DNA assay.

[3] = system: STAT3 mRNA; test: STAT3 mRNA expression in IL-6 stimulated PANC-1 cells, branched DNA assay; format: cell-based, human; conditions: for STAT3 Inhibition 2 nM / STAT3 Inhibition 20 nM: 2 point DR data; for IC50: 5 point DR data, Lipofectamine2000 transfection, 48 hr, read-out: STAT3 PANC1 IC50 Prism
Protocol: as §1, with “The ASOs of the present disclosure were tested for their ability to reduce STAT3 mRNA expression in IL-6 stimulated PANC-1 cells. The PANC-1” for “The PANC-1”

[4] = system: IL-1β; test: In vivo peritonitis model, intraperitoneal LPS challenge, serum IL-1β; parameters: species or system mouse; conditions: pre-treatment intraperitoneally 1 hour prior to challenge; 3 hours post-challenge
Protocol: Intraperitoneal LPS challenge induces the production of IL-1β in mice, which can be detected in the systemic circulation 3 hours post-challenge.

Compound | STAT3 Max inihibition 24 nM [1] | GAPDH Inhibition 20 nM [2] | STAT3 Inhibition 2 nM [3] | STAT3 Inhibition 20 nM [3] | IC50 [3] [nM] | induction of IL-1β in the serum of LPS-challenged mice [4]
116 (CTCCTGTTGATCGCAGCGAA; chemistry not given here) [compound 116] | 69.78 | 16.00 | 64.5 | 85.5 | 1.85 | –
120 (ATTATCTGAACCCCACTTCG; chemistry not given here) [compound 120] | 87.43 | 12.00 | 62.8 | 93.4 | 2.05 | –
124 (ATAGAGATTCTCGAAAGGTA; chemistry not given here) [compound 124] | 86.46 | 13.00 | 62.6 | 83.3 | 1.6 | –
125 (CACGTACTTTCTGTACTTCT; chemistry not given here) [compound 125] | 81.67 | 14.00 | 61.7 | 85.1 | 2.3 | –
126 (TGGAATCTGCTTCTCACGTA; chemistry not given here) [compound 126] | 87.71 | 13.00 | 61.4 | 90.7 | 2.78 | –
128 (ACCCAGACGGGCATTCCTGT; chemistry not given here) [compound 128] | 79.56 | 19.00 | 61.1 | 81.1 | 3.56 | –
130 (TGTAGCGTTTGTTGAGGCTC; chemistry not given here) [compound 130] | 72.16 | 13.00 | 59.3 | 80.7 | 1.68 | –
131 (AGTCGTGTGTAGCGTTTGTT; chemistry not given here) [compound 131] | 75.20 | 12.00 | 58.9 | 90.7 | 2.83 | –
133 (GCAGTCGTGTGTAGCGTTTG; chemistry not given here) [compound 133] | 81.73 | 14.00 | 55.9 | 90.7 | 2.24 | –
134 (CGCAGTCGTGTGTAGCGTTT; chemistry not given here) [compound 134] | 77.94 | 10.00 | 54.3 | 82.8 | 2.13 | –
135 (ACGTCTTGGTCTTGCCGATG; chemistry not given here) [compound 135] | 78.59 | 4.00 | 53.9 | 84.2 | 1.05 | –
137 (ATCTTAATGGGACTCACGGG; chemistry not given here) [compound 137] | 79.46 | −2.00 | 53.0 | 87.4 | 1.8 | –
138 (CCATCTTAATGGGACTCACG; chemistry not given here) [compound 138] | 85.33 | 9.00 | 53.0 | 86.8 | 1.31 | –
139 (ACTCCATCTTAATGGGACTC; chemistry not given here) [compound 139] | 72.50 | 10.00 | 52.8 | 83.4 | 4.02 | –
142 (GGCAGCAGCTCATGATCAGG; chemistry not given here) [compound 142] | 76.10 | 9.00 | 51.7 | 80.0 | 6.76 | –
145 (GTCCTATGTGCTCGTCAAAG; chemistry not given here) [compound 145] | 85.73 | 17.00 | 50.2 | 89.2 | 3.06 | –
CC(C)(O)c1coc(S(=O)(=O)NC(=O)Nc2c3c(cc4c2CCC4)CCC3)c1 [MCC950] | – | – | – | – | – | inhibited

Source: patent US20220354963A1, “EXTRACELLULAR VESICLE LINKED TO MOLECULES AND USES THEREOF” (Codiak BioSciences, Inc., priority 2019, published 2022)
